# Patent US20100029546A1, “preparation method of galactosyl-has magnetic nanoparticles containing adriamycin” (priority 2004, published 2010)
# How the values were obtained:
# [1] = rabbit
# liver cancer = assay: Animal test of liver cancer therapy, hepatic artery injection; type: in vivo
# Excerpt: The result could be found in animal test: the group having NS hepatic artery injection lived 12.7 days on average; the group having lib-adriamycin hepatic artery injection lived 18.7 days on average; HSA-NP hepatic artery injection lived 20.7 days on average; the group having Gal-HAS-NP treatment lived 39.4 days on average.
# Meanwhile, the aspiration of magnetic nanoparicles produced a longer functional diameter, which caused embolism in tumor blood vessels and lack of blood and oxygen in tumor in order to improve the sensitivity and effect of chemotherapeutics. Without adding magnetic field, the distribution rate of ADM-GHMN in tumorous and normal livers was 2.74, which also had some anti-tumor effects.
# hepatocelular cell = assay: Apoptosis, quadrilateral zone in drug toxicity experiment; type: cell-based
# HepG2 cell = assay: Transwell invasion in vitro; type: cell-based
# Excerpt: The tumor cell's mobility and the invasion are close to each other. The tumor cell has the ability of amoeba type's movement, and it was confirmed by many people. Simultaneously, many overseas scholars reported that there is a direct ratio relation between the mobility and the invasion ability of the cancer cell. […] There is significant difference between any two groups. […] HSA-magnetic-adriamycin-nanoparticles group is different from galactosyl-HSA-adriamycin-nanoparticles group in it.
# [2] = Drug release in vitro, dynamic dialysis; type: physicochemical; settings: for Releasing (%): physiological saline
# Description: Drug releases in vitro. According to dynamic dialysis, taking physiological saline as medium, 4 ml of the solution would be taken at certain time, and the same volume of the medium would be added in. The absorbency was measured to get the solving efficiency according to the standard curve formula. At the same time, the drug releasing experiment of adriamycin standard substance was done in order to observe the control release of the dialysis bag.
smiles,measurement,setting,value
COc1cccc2c1C(=O)c1c(O)c3c(c(O)c1C2=O)C[C@@](O)(C(=O)CO)C[C@@H]3O[C@H]1C[C@H](N)[C@H](O)[C@H](C)O1 [adriamycin],C l,[1],0.4233 ± 0.3223 mg/m/(mg/l)
same,T1/2β,[1]; elimination phase,883.2164 ± 2198.4914 m
same,A,[1]; in vivo,0.1362 ± 0.0185 mg · l − 1
same,AUC0→∞,[1]; in vivo,14.8163 ± 24.789 m · mg/l
same,B,[1]; in vivo,0.0109 ± 0.0028 mg · l − 1
same,Gamma,[1]; in vivo,0.5463 ± 0.1663 m − 1
same,T1/2α,[1]; in vivo,13.8169 ± 3.5845 m
same,V c,[1]; in vivo,18.6816 ± 2.3663 (mg)/(mg/l)
same,α,[1]; in vivo,0.0523 ± 0.0161 m − 1
same,average survival,liver cancer; hepatic artery injection,18.7 days
same,tumor necrosis extent in pathological section,liver cancer; in vivo,no badly necrosis but most light or medium leveled necrosis
same,characteristic quadrilateral zone present,hepatocelular cell,characteristic quadrilateral zone
same,inhibition of invasive power,HepG2 cell,can inhibit invasive power of the HepG2 cell
same,Releasing (%),[2]; 0.5 h,78.21%
same,Releasing (%),[2]; 1 h,91.34%
same,Releasing (%),[2]; 2 h,100%
same,release / releasing efficiency,[2]; time not stated (Tab 6),91.34%
